Data on five compounds can be found in US9259418B2 (priority 2008, dated 2016).

The structures appear in SMILES notation.

For experiment [1], the system named is PC12 cells. The experiment is described as follows: In vitro neuroprotection assay, serum-free medium induced apoptosis, MTT test. The class given is cell-based, rat. The note with it: serum starved PC12 cells, drugs alone or as DRA + MAO inhibitor combination. On the procedure:
(§1) For neuroprotection experiment cells were plated (1 or 0.5×10^5 Cells per well) on poly-L-lysine (Sigma) coated 96 wells tissue culture plates. Twenty four hours after plating the medium was exchanged with fresh growth medium with or without the tested drugs in the absence or presence of stressor. Cell cytotoxicity was induced by either serum starvation or Methyl-4phenylpyridium (MPP^+), 250 uM and 125 uM for PC12 and SK cells respectively. Drugs were added in different concentration alone and in combination, 30 minutes prior to the insult for a subsequent 48 or 72 hours. Neuronal cell injury was evaluated by a colorimetric assay for mitochondrial function using the MTT test (Sigma). The MTT test is based on the conversion of MTT to blue formasan crystals by viable cells. 5 mg/ml MIT reagent was added to each well (1:10 final dilution in each well). Cells were incubated for 1 hour at 37° C. and 5% CO2. Excess MIT was removed, and remaining formasan crystals were dissolved in 50 ul DMSO and were quantified in Elisa reader. The wavelength of the measurement of formasan product was 550 nm and the reference wavelength was 620 nm.
(§2) (a) PC12 and SK-N-SH Cells were incubated with 3 different concentrations of MPP+(125, 250, and 500 μM) or in growth medium lacking serum for 48 and 72 hours.
(§3) (b) Various drug combinations at various drug ratios as stated above were tested. The concentrations used were as follows: ropinirole, 400 μM, 200 μM, 100 μM, 50 μM; rasagiline, 400 μM, 200 μM, 100 μM, 50 μM, 10 μM; pramipexole, 400 μM, 200 μM, 100 μM, 50 μM; selegiline, 100, 50 μM, 10 μM, 1. Cell protection was detected by MTT.
(§4) The combinations used to treat serum-free medium induced apoptosis were ropinirole, 200 μM: rasagiline, 50 μM; ropinirole, 100 μM: rasagiline, 10 μM (FIG. 1A); pramipexole, 200 μM selegiline, 50 μM; pramipexole, 100 μM: selegiline, 10 μM (FIG. 1B); ropinirole, 200 μM: selegiline, 50 μM; and ropinirole, 100 μM: selegiline, 10 μM (FIG. 1C). […]
(In general: Formazan colour is commonly taken as a measure of viable cells.)

Experiment [2] concerns PC12 cells. As to the kind of experiment: In vitro neuroprotection assay, MPP+ induced apoptosis, MTT test. The class given is cell-based, rat. The note with it: MPP+ treated PC12 cells, drugs alone or as DRA + MAO inhibitor combination. On the procedure:
as §1, §2, §3, §4

Experiment [3] relates to MPTP treated mice. As to the kind of experiment: Striatal dopamine levels in MPTP treated mice (HPLC). In kind it is in vivo. Conditions: for dose required to restore dopamine levels when administered alone: MPTP challenged mice, data not shown. The protocol: Striatum tissue samples were homogenized in ice in 500 ul homogenization buffer (0.1M perchloric acid, 0.02% EDTA and 1% ETOH) using OMNI Tip homogenizing kit of OMNI International (intermediate speed, 3×10 seconds with 5 seconds intervals). The homogenates were sonicated for 5 minutes then centrifuged at 15,000 RPM at 4° C. for 15 min. The supernatants were transferred into fresh tubes and Dopamine content was analyzed by HPLC.
Saline-injected mice are used as control (naïve mice).

The test system of experiment [4] is MPTP treated mice. The experiment is described as follows: Locomotion activity by Rota rod in MPTP treated mice. The note with it: day 5, MPTP alone. In kind it is in vivo. On the procedure: Saline-injected mice are used as control (naïve mice). Mice were treated according to the following plan:
FIGS. 3A-B show the locomotion activity as tested by Rota rod latency (FIG. 3A) and Rota rod distance (FIG. 3B) on day 5 of the study (5 drug administrations).
(In general: The rotarod test checks motor coordination on a turning rod.)

As for `CCCN(CCC)CCc1cccc2c1CC(=O)N2` [ropinirole], the “neuroprotection effect / cell survival (% viable cells)” value in the experiment with PC12 cells [1] and with PC12 cells [2] was “the effect on neuroprotection was minor” each time.

Turning to `C#CCN[C@@H]1CCc2ccccc21` [rasagiline], the “neuroprotection effect / cell survival (% viable cells)” value in the experiment with PC12 cells [1] and in the experiment on PC12 cells [2] was “the effect on neuroprotection was minor” in each case. Besides, the “dose required to restore dopamine levels when administered alone” value in the experiment with MPTP treated mice [3] was “at least 0.5 mg/kg”. For the same compound, the “increase in dopamine levels” value with MPTP treated mice [3] (high doses alone: 0.1 mg/kg rasagiline, 1 mg/kg pramipexole) is listed as “significant but small increase”. In addition, in the experiment on MPTP treated mice [3] (low doses: rasagiline 0.05 mg/kg, pramipexole 0.5 mg/kg, alone or combined), the “restoration of dopamine levels” value is on record as “did not cause a significant restoration of dopamine levels”.

For `CN1CC=C(c2ccccc2)CC1` [MPTP, N-methyl-4-phenyl-1,2,3,6-tetrahydropyridine], the “decrease in locomotion activity” value in the experiment with MPTP treated mice [4] is reported as “about 30%”. Besides, the “depletion in dopamine levels relative to naïve mice” value in the experiment with MPTP treated mice [3] (MPTP treatment alone) is recorded as “over 70%”.

In the case of `C#CCN(C)[C@H](C)Cc1ccccc1` [selegiline], the “neuroprotection effect / cell survival (% viable cells)” value in the experiment with PC12 cells [1] and in the experiment on PC12 cells [2] was “the effect on neuroprotection was minor” in each case.

With `CCCN[C@H]1CCc2nc(N)sc2C1` [pramipexole], in the experiment on MPTP treated mice [3], the “dose required to restore dopamine levels when administered alone” value was “higher than 1 mg/kg”.
